Data: paper PMC8472459, “In Vitro Phenotypic Activity and In Silico Analysis of Natural Products from Brazilian Biodiversity on Trypanosoma cruzi” (Molecules, 2021)
Values after ≈ are worked out from the molar mass of the structure shown. Values joined by “and” are separate entries in the source; they are usually repeats but may differ in a detail not shown here. Equal values may be shown once. Read-outs that look alike come from different tables or passages of the source.

Key:
[1] = tested on: cell-derived trypomastigotes; set-up: method as in PMID 28177047; conditions: cited from earlier work
[2] = tested on: intracellular forms of T. cruzi (Tulahuen strain); test: Activity against intracellular forms of T. cruzi (Tulahuen-β gal strain) in infected L929 cell lines, CPRG readout; assay type: cell-based, Trypanosoma cruzi; conditions: for inhibition at 10 µM / EC50: Trypanosoma cruzi; for SI (Selectivity Index), intracellular forms: LC50 L929 / EC50 intracellular forms
Experimental: The crude extracts and the resulting fractions were evaluated following a well standardized protocol of phenotypic analysis for novel drug candidates for CD [25]. The first approach was the screening against intracellular amastigotes (Tulahuen-β gal strain, DTU VI) using a fixed concentration of 10 µg/mL, which corresponds to the 90% effective concentration (EC90)value of the reference drug (Bz) for CD (Table 1). The leaves fraction using dichloromethane from Aureliana fasciculata var. fasciculata (AFfPD) sterilized T. cruzi infection in L929 cell lines, leading to 100% of infection reduction. […] Natural products from fruit pulp of C. cujete have no trypanocidal effect at a concentration of 10 µg/mL.
Culture derived trypomastigotes of Tulahuen strain (DTU VI), transfected with the β-galactosidase gene from Escherichia coli, were collected from the supernatant of previously infected L929 fibroblasts. Trypomastigotes were used to infect L929 cultures at a ratio of 10:1 (parasites/host cell) to determine activity against intracellular forms. After 2 h of interaction, the cultures were washed for the removal of remaining parasites and incubated for 48 h to ensure the establishment of the infection. On the first set of assays, the compounds were added in a fixed concentration (10 µg/mL or 10 µM for the extracts and purified fractions, respectively) that corresponds to EC90 of Bz. The non-infected cells (controls) were treated with DMSO and Bz and were also evaluated. The compounds that reached the same or higher activity than Bz were later evaluated in assays with increasing concentrations (serially diluted (7-fold): 0–50 µg/mL for extracts and fractions and 0–50 µM for purified compounds and Bz) for the determination of the EC50 and EC90 values (minimal concentration able to reduce to 50% and 90% of the infection index in cultures). In both assays the cultures were maintained at 37 °C for 96 h to enable the calculation of the inhibition percentage on the infection. Thereafter, 500 μM of substrate CPRG (chlorophenol red-β-D-galactopiranosideo) in 0.5% Nonidet P40 (Sigma-Aldrich, St. Louis, MO, United States) were added to the in vitro system. The plates were incubated for 18 h at 37 °C and, following, the absorbance was measured at 570 nm. […] All the assays were conducted in duplicate at least three times.

[3] = Cardiotoxicity, primary cardiac cell cultures (PrestoBlue, light microscopy); assay type: cell-based; conditions: Swiss Webster, mouse
Experimental: (§1) Primary cardiac cell cultures (CC) were obtained from Swiss Webster mice embryo hearts (18 gestation days) as described by Meirelles et al. and were used for toxicity assays. After purification, the cardiac cells were seeded (0.5 × 10^5 cells/well) in 96 wells microplates previously coated with 0.01% gelatin. The cardiac cultures were maintained in Dulbecco’s Modified Eagle’s Medium supplemented with 6% of FBS, 2.5 mM CaCl2, 1 mM L-glutamine, 1mM penicillin and 2% chicken embryo extract. Mice fibroblast of the line NTCL clone 929 (L929) were used for toxicity and anti-T. cruzi activity assays. L929 cells were seeded (4 × 10^3 cells/well) in 96 well microplates and kept in RPMI-1640 medium (Sigma-Aldrich, Missouri, EUA) supplemented with 10% FBS, 1% L-glutamine and 1% penicillin. The cell cultures were maintained at 37 °C at 5% CO2.
(§2) Cell viability was assessed using PrestoBlue (for assay with CC) and AlamarBlue (for assays with L929) with fluorescence and absorbance readouts (560–590 and 570–600 nm, respectively) in a spectrophotometer (Tunable microplates reader VersaMax; Molecular Devices). Additionally, cell morphology aspects were evaluated in a light microscope, as well as the contractability, density and cytoplasmic vacuolization. Cell viability rates were then determined by the LC50 values that correspond to the compound concentration able to reduce in 50% the viability of the cell population.

[4] = tested on: bloodstream trypomastigotes of T. cruzi (Y strain); test: Activity against bloodstream trypomastigotes (Y strain), light microscopy count of live parasites; assay type: cell-based, Trypanosoma cruzi; conditions: for SI (Selectivity Index), bloodstream trypomastigotes: LC50 cardiac cell cultures / EC50 bloodstream trypomastigotes
Experimental: In addition, the activity of both natural products was also evaluated against bloodstream trypomastigotes (BT), another relevant form of T. cruzi in mammalian hosts (Table 2). […] As cardiomyopathy is one of the main chronic symptoms of CD, next, the cardiotoxicity profile was assessed using primary cultures of mouse cardiac cells (CC) incubated with increasing concentration of both biomolecules and Bz. After […] of incubation with both extracts, no evident cardiac alterations related to cellular density and morphology was observed by light microscopy.
Bloodstream trypomastigotes (BT) of the T. cruzi Y strain (DTU II) were obtained by cardiac punction from Swiss Webster mice during the parasitemia peak and the purified parasites were resuspended in Dulbecco’s modified Eagle medium (DMEM) (Cultilab) supplemented with 10% fetal bovine serum (FBS).

in vitro = assay type: cell-based
Experimental: as §1, §2

L929 cell lines = test: in vitro; assay type: cell-based
Experimental: as §1, §2

[5] = tested on: promastigotes of L. amazonensis; set-up: method as in PMID 30513673; conditions: cited from earlier work
[6] = tested on: L. amazonensis infected macrophages; set-up: method as in PMID 30513673; conditions: cited from earlier work; for EC50: read-out: EC50 upon infected macrophages
[7] = TULAHUEN, L929, 96 h, 10 μM, 96 h of incubation, L929 cell line infected with Tulahuen strain, read-out: % of Infection Reduction
[8] = Trypanosoma cruzi, 2 h, read-out: EC50 bloodstream trypomastigotes, 2 h, Y strain
[9] = Trypanosoma cruzi, 24 h, read-out: EC50 bloodstream trypomastigotes, 24 h, Y strain
[10] = Trypanosoma cruzi, 24 h, read-out: EC90 bloodstream trypomastigotes
[11] = TULAHUEN, L929, 96 h, read-out: % of Infection Reduction, 10 μM, 96 h of incubation, L929 cell line infected with Tulahuen strain
[12] = TULAHUEN, L929, 96 h, read-out: EC50 intracellular forms
[13] = Trypanosoma cruzi, 2 h, Y strain, read-out: EC50 bloodstream trypomastigotes
[14] = Trypanosoma cruzi, 24 h, Y strain, read-out: EC50 bloodstream trypomastigotes
[15] = Trypanosoma cruzi, 24 h, Y strain, read-out: EC90 bloodstream trypomastigotes
[16] = 96 h, Tulahuen strain, L929 host cells, read-out: EC50 intracellular forms

In the case of C=CC(C)(O)CCC=C(C)C (stereo not shown) [linalool], the selectivity index ([1]; cell-derived trypomastigotes) is given as 2.9 and the “EC50 against cell-derived trypomastigotes” value [1] is given as 0.31 µg/mL (≈ 2.01 µM).

With C[C@H]1[C@@H](O)CCC2[C@]3(C)CC[C@@]4(C)C5CC(C)(C)CC[C@]5(C)CC[C@]4(C)C3CC[C@@]21C (stereo partly drawn) [Compound 3, 3 beta-friedelanol] the inhibition at 10 µM [2, 7] was 21 ± 10%.

With Oleanolic acid [Compound 4] the “% of Infection Reduction” value ([2]; 10 μM, 96 h of incubation, L929 cell line infected with Tulahuen strain) was 20 ± 18%.

For COc1cc(/C=C/C(=O)N2CCC=CC2=O)cc(OC)c1OC [Compound 8, Piplartine], the CC50 at 24 h ([3]; 24 h, read-out: LC50 cardiac cell cultures) was 33.1 ± 5.9 µM, the “SI (Selectivity Index), bloodstream trypomastigotes” value ([4]; 24 h, µM data) was 6.2 and the EC50 [4, 8] was over 50 µM. The EC50 [4, 9] was 5.4 µM, the EC90 [4, 10] was 14.4 ± 5.8 µM and the EC50 ([4]; read-out: EC50 bloodstream trypomastigotes, 24 h, Y strain) was 5.38 ± 0.3 µM. The CC50 at 96 h (in vitro; 96 h, read-out: LC50 L929 cell lines) was 73.1 ± 75.5 µM, the “SI (Selectivity Index), intracellular forms” value ([2]; 96 h, µM data) was 9 and the inhibition at 10 µM [2, 11] was about 50%. The EC50 [2, 12] was 8.1 ± 0.9 µM.

With O=C(Cn1ccnc1[N+](=O)[O-])NCc1ccccc1 [Bz, Benznidazole, reference compound] the CC50 at 24 h [3] was > 750 µg/mL and > 750 µM, the “SI (Selectivity Index), bloodstream trypomastigotes” value ([4]; 24 h, µM data) was over 57.1 and the “SI (Selectivity Index), bloodstream trypomastigotes” value ([4]; 24 h, μg/mL data) was over 83. The EC50 ([4]; Trypanosoma cruzi, 2 h, read-out: EC50 bloodstream trypomastigotes (Y strain), 2 h) was over 50 µg/mL, the EC50 [4, 8] was over 50 µM and the EC90 ([4]; Trypanosoma cruzi, 2 h, read-out: EC90 bloodstream trypomastigotes (Y strain)) was over 50 µg/mL. The EC50 ([4]; Trypanosoma cruzi, 24 h, read-out: EC50 bloodstream trypomastigotes (Y strain), 24 h) was 10.2 ± 0.3 µg/mL, the EC50 [4, 9] was 13.1 ± 3.9 µM and the EC90 [4, 10] was 31.3 ± 8.8 µM. The EC90 ([4]; Trypanosoma cruzi, 24 h, read-out: EC90 bloodstream trypomastigotes (Y strain)) was 23.3 ± 0.6 µg/mL, the “LC50 L929 cell lines” value (L929 cell lines) was “not toxic up to the higher tested concentration” and the CC50 at 96 h (in vitro; mouse) was > 200 µg/mL and > 200 µM. The “SI (Selectivity Index), intracellular forms” value ([2]; 96 h, µM data) was over 66.6, the “SI (Selectivity Index), intracellular forms” value ([2]; 96 h, μg/mL data) was over 52 and the inhibition at 10 µM [2, 11] was 92 ± 7%. For the same compound, the EC50 [2, 12] was 3 ± 0.6 µM, the EC50 ([2]; TULAHUEN, L929, 96 h, read-out: EC50 intracellular forms (Tulahuen strain)) was 3.8 ± 1.8 µg/mL and the “% of Infection Reduction after 96 h of Incubation” value ([2]; fixed concentration of 10 µg/mL, L929 cell lines infected with Tulahuen strain, 96 h) was 90.5 ± 5.7%.

With C[C@H]1C(=O)CC[C@@H]2[C@]1(C)CC[C@H]1[C@@]2(C)CC[C@@]2(C)[C@@H]3CC(C)(C)CC[C@]3(C)CC[C@]12C [Compound 6, Friedelin] the inhibition at 10 µM [2, 7] was 0%.

For CC(=O)O[C@@H]1CC2C3CC=C4[C@@H](O)C=CC(=O)[C@]4(C)C3CC[C@]2(C)[C@@]1(O)[C@H](C)C1CC(C)=C(C)C(=O)O1 (stereo partly shown) [Compound 2, Aurelianolide B], the CC50 at 24 h [3] is listed as 30.9 ± 3.8 µM, the “activity against promastigotes of L. amazonensis” value [5] is listed as “active” and the “SI (Selectivity Index), bloodstream trypomastigotes” value ([4]; 24 h, µM data) is listed as 5.4. The EC50 [4, 13] was over 50 µM, the EC50 [4, 14] was 5.72 ± 1.3 µM and the EC90 [4, 15] was 9.25 ± 3.2 µM. For the same compound, the CC50 at 96 h (in vitro; mouse) was 27.4 ± 1 µM, the “selectivity indexes, infected macrophages” value [6] was 2.0 and the EC50 [6] was 6.43 µM. For the same compound, the “SI (Selectivity Index), intracellular forms” value ([2]; 96 h, µM data) was 17.1, the inhibition at 10 µM [2, 7] was over 90% and the EC50 [2, 16] was 1.6 ± 0.4 µM.

Work on COc1cc([C@H]2O[C@H](c3cc(OC)c(OC)c(OC)c3)[C@@H](C)[C@@H]2C)cc(OC)c1OC [Compound 7, (-)-grandisin] yielded an inhibition at 10 µM [2, 7] of 25 ± 36%.

In the case of CC(=O)O[C@@H]1CC2C3C[C@H]4O[C@]45[C@@H](O)C=CC(=O)[C@]5(C)C3CC[C@]2(C)[C@@]1(O)[C@H](C)C1CC(C)=C(C)C(=O)O1 (stereo partly shown) [Compound 1, Aurelianolide A], the CC50 at 24 h [3] is listed as 16.4 ± 1.3 µM, the “activity against promastigotes of L. amazonensis” value [5] is listed as “active” and the “SI (Selectivity Index), bloodstream trypomastigotes” value ([4]; 24 h, µM data) is listed as 2.9. For the same compound, the EC50 [4, 13] was over 50 µM, the EC50 [4, 14] was 5.68 ± 2.3 µM and the EC90 [4, 15] was 8.33 ± 3.9 µM. The CC50 at 96 h (in vitro; mouse) was 42.1 ± 28.3 µM, the “selectivity indexes, infected macrophages” value [6] was 5.6 and the EC50 [6] was 2.3 µM. For the same compound, the “SI (Selectivity Index), intracellular forms” value ([2]; 96 h, µM data) was 9.15, the inhibition at 10 µM [2, 7] was over 90% and the EC50 [2, 16] was 4.6 ± 1.3 µM.
